From US20240350667A1, “Method of Enhancing Gene Therapy by Targeting cGAS-STING Pathway” (Spark Therapeutics, Inc., priority 2021, published 2024)

What was measured:
[1] = test system: DNA-LNP-induced plasma cytokine/chemokine levels; assay: In vivo RO3150 and GSK690693 inhibition of DNA-LNP-induced cytokine release; set-up: species or system BALB/c mice; conditions: pre-treatment before DNA-LNP: dexamethasone 200 μg IP, GSK690693 312.5 μg IP (about one hour prior), RO3150 60 μg IV (right before); plasma at 4 hours; FIGS. 3A-3H
Protocol: BALB/c mice were pre-treated with dexamethasone, GSK690693, or RO3150 before DNA-LNP administration, and plasma cytokine levels were measured at 4 hours post DNA-LNP treatment. The DNA-LNP was made up of (1) DNA plasmid (nanoplasmid expression cassette encoding hFIX); and (2) GenVoy-ILM™ LNP. GenVoy-ILM™ LNP contains ionizable lipid at 50%; DSPC at 10%; cholesterol 37.5%; and stabilizer (PEG-Lipid) at 2.5% (see Roces et al., Pharmaceutics, 2020 12, 1095). Pretreatment was carried out using 200 μg dexamethasone administered intraperitoneally about one hour prior to DNA-LNP administration; using 312.5 μg GSK69063 administered intraperitoneally about one hour prior to DNA-LNP administration; or using 60 μg […] administered intravenously right before DNA-LNP administration.

[2] = test system: interferon regulatory factor (IRF) pathway in THP1-Dual cells; assay: In vitro H-151 inhibition of DNA-LNP-induced IRF activation (Lucia luciferase in THP1-Dual cell supernatant); format: cell-based; conditions: 25 ng DNA-LNP/well, 24 hours, FIG. 1
Protocol: THP1-Dual™ cells (InvivoGen) were seeded in 96-well plates at a density of 45,000 cells/well. After overnight incubation, the cells were treated with 25 ng DNA-LNP/well in the presence of 0, 0.2 or 2.1 ng of small molecule STING inhibitor H-151 (InvivoGen), where the H-151 was provided either a) co-encapsulated with the DNA in the LNPs, or b) provided in a soluble form. After 24 hours incubation, activation of the interferon regulatory factor (IRF) pathway (“fold IRF activity”) was determined by measuring luminescence signal (Lucia luciferase) in the cell culture supernatant. The DNA-LNP was made up of (1) DNA plasmid (nanoplasmid expression cassette encoding human coagulation Factor IX (hFIX)) and (2) Lipid 5 (further described in Sabnis et al. and I.A. infra.), 50%; C14-PEG2000, 1.5%; cholesterol, 38.5%; and DSPC, 10%.

[3] = test system: DNA-LNP-induced plasma cytokines; assay: In vivo LNP-encapsulated H-151 inhibition of DNA-LNP-induced cytokine release; set-up: species or system BALB/c mice; conditions: H-151 encapsulated in 10 μg DNA-LNP, about 1-2 μg/mouse, 4 hours post injection
Protocol: BALB/c mice were injected with 10 μg DNA-LNP or 10 μg DNA-LNP encapsulating H-151. H-151 was provided at a dose of about 1-2 μg/mouse (about 0.04-0.08 mg/kg mouse) Cytokine levels in plasma were measured at 4 hours post injection. FIGS. 2A, 2B, 2C, and 2D illustrate the ability of H-151 encapsulated with the DNA-LNP to inhibit DNA-induced IFN-β (FIG. 2A), IFN-α (FIG. 2B), IFN-γ (FIG. 2C) and IL-6 (FIG. 2D). The DNA-LNP was as described in Example 1, above.

| Structure (SMILES) | cytokine/chemokine levels induced by DNA-LNP [1] | effect on LNP-DNA-induced IRF activation (fold IRF activity), compared with soluble H-151 ([2]; H-151 co-encapsulated with the DNA in the LNP, 0.2 or 2.1 ng/well) | effect on LNP-DNA-induced IRF activation (fold IRF activity) ([2]; soluble H-151, 0.2 or 2.1 ng/well) | DNA-induced IFN-β in plasma ([3]; FIG. 2A) | DNA-induced IFN-α in plasma ([3]; FIG. 2B) | DNA-induced IFN-γ in plasma ([3]; FIG. 2C) | DNA-induced IL-6 in plasma ([3]; FIG. 2D) |
| --- | --- | --- | --- | --- | --- | --- | --- |
| CCn1c(-c2nonc2N)nc2c(C#CC(C)(C)O)ncc(OC[C@H]3CCCNC3)c21 [GSK690693] | reduced most cytokine/chemokine levels except IL-6 and KC/GRO |  |  |  |  |  |  |
| CCc1ccc(NC(=O)Nc2c[nH]c3ccccc23)cc1 [H-151] |  | more pronounced | had an inhibitory effect | inhibit | inhibit | inhibit | inhibit |
